# Reference: the OPERA property sets (Mansouri et al. 2018)
row,Compound,logP
1,C[N+](C)(C)Cc1ccccn1.[Br-],-3.4
2,COc1c(O)cc(Cc2cnc(N)nc2N)cc1O,-0.04
3,CCCCOc1cc(Cc2cnc(N)nc2N)c(C)cc1OC,2.78
4,O=C(O)C1CCc2ccccc2O1 (stereo not given),1.9
5,CC(C)(C)c1ccc(OC2OC(CO)C(O)C(O)C2O)cc1 (stereo not given),1.18
6,COc1cc(Cc2cnc(N)nc2N)cc(OC)c1Cl,1.87
7,CNC(=O)Oc1cccc(I)c1,2.52
8,CCCCCCOC(=O)N(C)SN(C)C(=O)ON=C(C)SC,4.2
9,CCCCNc1ccccc1C(N)=O,2.33
10,[O-][n+]1ccc(Cl)c2ccccc21,1.08
11,Cc1ccc(C(=N)c2ccc(C)cc2)cc1,3.71
12,CCOC(=O)CCCn1nnc2ccccc21,1.86
13,COP(=O)(OC)Oc1cc(C)c([N+](=O)[O-])c(C)c1,2.57
14,CCCNC(=NC#N)NC,0.42
15,Cc1ccc(OC2OC(CO)C(O)C(O)C2O)cc1 (stereo not given),-0.16
16,COc1cc(Cc2cnc(N)nc2N)cc(OC)c1CO,0.42
17,COc1cc(Cc2cnc(N)nc2N)cc(I)c1OC,2.33
18,O=C(O)COc1cc(F)cc(Cl)c1,2.2
19,Oc1ccc(C(c2ccncc2)c2ccc(O)cc2)cc1,3.24
20,COc1ccc(OC)c(NC2=NCCN2)c1,0.97
21,CCc1cc(NC(C)=O)ccc1O,1.31
22,CC(C)(Cc1ccccc1)NC(=O)N(CCCl)N=O,3.73
23,CNc1ncnc2sccc12,1.43
24,CSc1nncc(=O)n1N,0.38
25,CCCCCCCCCC[n+]1ccc(C)c(C)c1.[I-],0.66
26,CCOC(=O)CCCCCN1C(=O)C=CC1=O,1.5

row,Compound,logP
1,CC(=O)c1ccc(N2C(N)=NC(N)=NC2(C)C)cc1,-0.04
2,CC(=O)Nc1ccn(C2OC(COC(C)=O)C(OC(C)=O)C2OC(C)=O)c(=O)n1 (stereo not given),-0.16
3,CNC(=O)ON=Cc1ccc(Cl)cc1,2.27
4,Clc1ncnc2sccc12,1.79
5,CCOC(=O)C(=Cc1ccc(Cl)cc1)C(=O)OCC,3.96
6,CC(=O)Nc1ccc(O)c(C)c1,0.79
7,Cc1ccccc1NC(=O)C1CNCCN1 (stereo not given),0.26
8,NC(=O)CCCCCn1nnc2ccccc21,0.79
9,COc1cc(C)n(-c2ccncn2)n1,2.21
10,COc1cc(Cc2cnc(N)nc2N)ccc1N,0.49
11,CCOc1ncnc(NS(=O)(=O)c2ccc(N)cc2)c1OC,1.18
12,O=C(O)Cc1ccc(OCc2ccccc2)cc1,2.72
13,Cc1ccc(C(=O)c2ccncc2)cc1,2.51
14,CCOP(=S)(OCC)Oc1ccccc1,3.46
15,CCCCNc1nnc(C(C)C)c(=O)n1N,1.78
16,NC(=O)c1cccs1,0.52
17,CCN(CC)CCNC(=O)c1cc(F)ccc1OC,2.62
18,CNc1ccc(C(=O)OCCN(C)C)cc1,1.95
19,CN(C)C(=O)c1cc(N2CC2)c([N+](=O)[O-])cc1[N+](=O)[O-],0.63
20,CN(C)/N=N/c1ccccc1Cl,3.03
21,CC(C)(C)CC(N)C(=O)O (stereo not given),-1.42
22,CCOC(=O)CCCN1C(=O)C=CC1=O,0.67
23,O=[N+]([O-])c1cccc(C2NCCS2)c1 (stereo not given),1.59
24,Nc1ccc(C(O)C(CO)NC(=O)C(Cl)Cl)cc1 (stereo not given),-0.29
25,CCCCC1=Nc2ccc(Cl)cc2S(=O)(=O)N1,2.52
26,O=C1CCC(=O)N1c1ccccc1Br,0.65

row,Compound,logP
1,COc1nc(-c2ccccc2)c2ccccc2n1,3.5
2,Cc1ccccc1NC(=O)CN1CCCCC1,2.26
3,CC(=O)Nc1cccc(N=NN(C)C)c1,1.61
4,Cc1ccc(C(C)C)c(OC2OC(CO)C(O)C(O)C2O)c1 (stereo not given),1.07
5,CCOC(=O)C(C#N)=NNc1cc(Cl)cc(Cl)c1,3.82
6,O=S1(=O)NC(C2CC=CCC2)=Nc2ccccc21 (stereo not given),2.05
7,COC(=O)C(C#N)=NNc1ccc(Cl)c(C(F)F)c1,3.8
8,Cc1[nH]c(=O)n(OCC(C)C)c(=O)c1Br,1.23
9,CCC(C)n1nnc2ccccc21 (stereo not given),2.31
10,CCC12CC3CC(N)(C1)CC(CC)(C3)C2,4.36
11,O=S(=O)(Nc1ccc(F)cc1)C(F)(F)F,3.25
12,CCOc1cc(Cc2cnc(N)nc2N)cc(OC)c1C(C)(C)O,2.11
13,CCc1cc(=O)n2c(C)cccc2n1,1.59
14,C#CCN(C)N=Nc1nc[nH]c1C(N)=O,0.33
15,CCCCCCc1nnc(N)o1,1.43
16,CCOP(=S)(OCC)SCS(=O)(=O)C(C)(C)C,2.48
17,COC(=O)C(C#N)=NNc1ccc(C(F)(F)F)cc1,3.79
18,CCOc1ccc2nc(S(=O)(=O)NC)sc2c1,2.59
19,Cc1cnc(Cc2ccc(O)cc2)s1,2.62
20,CCc1cc(C(=O)NN)ccn1,0.12
21,O=C(NC(CO)C(O)c1ccc(Cl)cc1)C(Cl)Cl (stereo not given),1.64
22,O=C(O)COc1cc(F)cc(I)c1,2.42
23,COc1c(Cl)cc(Cc2cnc(N)nc2N)cc1Cl,2.78
24,Cn1c(C(C)(C)O)cnc1[N+](=O)[O-],0.43
25,O=C1CCC(=O)N1c1ccccc1C(F)(F)F,0.76
26,CCOC(=O)CN(C(=O)CCl)c1ccccc1OC,1.78

row,Compound,logP
1,CC(=O)N(C)/N=N/c1ccc(F)cc1,2.77
2,CCOC(=O)CCN1C(=O)C=CC1=O,0.41
3,CC(C)=CC1C(C(=O)OCc2cccc([N+](=O)[O-])c2)C1(C)C (stereo not given),5.2
4,CN(C)/N=N/c1[nH]ncc1C(N)=O,-0.12
5,CC1NC(=Nc2ncc([N+](=O)[O-])s2)OC1(C)C (stereo not given),1.88
6,Cc1cc([N+](=O)[O-])c2ccccc2[n+]1[O-],1.25
7,CC(=O)Oc1ccccc1F,1.76
8,O=S1(=O)N=C(c2ccccc2)Nc2ccccc21,1.78
9,CC(C)CC1=Nc2cc(Cl)ccc2S(=O)(=O)N1,2.35
10,CCOC(=O)C(C#N)=NNc1ccc(Cl)c(C(F)(F)F)c1,4.86
11,CNc1cc(Cc2cnc(N)nc2N)cc(NC)c1,0.44
12,CCCCCCCC[n+]1ccccc1.[I-],-0.84
13,O=S(=O)(Nc1ccc(C(F)(F)F)cc1)C(F)(F)F,4.47
14,COCCOc1ccccc1OCCOC,1.12
15,Cc1[nH]c(=O)n(OCCCl)c(=O)c1Br,0.3
16,CC1=Nc2c(Br)cc(Cl)cc2S(=O)(=O)N1,1.65
17,Clc1ccc(Cl)c(-c2cc(Cl)cc(Cl)c2Cl)c1,6.79
18,O=C1CCCN1CCOc1ccc([N+](=O)[O-])cc1,1.33
19,CC(C)(C)C(=O)NN1CC=CCC1,1.03
20,C#CC(C)(C)N(C)C(C)C,2.29
21,CCC(C)C(NC(C)=O)C(=O)NC (stereo not given),0.14
22,O=C(c1ccccc1)c1ccc(N=C=S)cc1,4.88
23,CNC(=N)NC(=N)Nc1ccc(Cl)cc1,1.58
24,N#Cc1ccc(NC(=O)N=C(N)N)cc1Cl,1.9
25,O=NN1CCC(=O)CC1,-0.47
26,CCCCSc1ccccc1OC(=O)NC,2.98

row,Compound,logP
1,COc1cc(S(=O)(=O)CC(O)c2ccccc2)cc(OC)c1OC (stereo not given),1.65
2,O=C1OC(Cc2ccccc2)c2ccccc21 (stereo not given),3.12
3,CN(C)Cc1cccs1,1.67
4,Cc1cc(NC(=O)N(C)C)cc(C)c1Br,2.92
5,CN1C(=O)CN=C(c2c(Cl)cccc2Cl)c2cc(Cl)ccc21,3.04
6,COc1cc(CC(=O)O)ccc1OCCCC(C)C,3.3
7,COC(=O)C(C#N)=NNc1ccc(C(F)(F)F)cc1[N+](=O)[O-],3.44
8,CN(Cc1ccccc1)N=Nc1ccc(C#N)cc1,3.82
9,O=C(Cn1ccnc1[N+](=O)[O-])N(CO)CO,-1.59
10,N#CC(C#N)=C(c1ccccc1)c1ccccc1,3.55
11,Cc1cc(-n2c(=O)cc(C)n2C)nc(C)n1,0.24
12,CNC1C2CCC1c1ccccc12 (stereo not given),2.37
13,CSCN1C(=O)CN=C(c2ccccc2)c2cc(N)ccc21,1.92
14,CCCCNP(=O)(OC)Oc1cc(Cl)c(Cl)cc1Cl (stereo not given),4.18
15,CNC(=O)Oc1cc(C)c(Cl)cc1C,2.95
16,CC(N)Cc1ccc2c(c1)OCO2 (stereo not given),1.64
17,Nc1nc(N)nc(-c2cc(F)ccc2Br)n1,1.45
18,Nc1cc(OCC(=O)O)ccc1Cl,1.16
19,COc1cc(Cc2cnc(N)nc2N)c(Br)cc1Br,3.17
20,CCC(C)c1nnc(N)o1 (stereo not given),0.62
21,CC/N=C(N)/N=C(\N)Nc1ccc(Cl)cc1,2.14
22,CCOC(=O)N(C)SN(C)C(=O)Oc1cccc2c1OC(C)(C)C2,3.5
23,CCCCCCOn1c(=O)[nH]c(C)c(Br)c1=O,2.48
24,COc1cc(S(=O)(=O)CCC(C)C)cc(OC)c1OC,2.12
25,CCCCCCCC(=O)NN,1
26,CCN(CC)c1ccc(CO)cc1,2.29

row,Compound,logP
1,FC(F)OC(F)(F)C(F)Cl (stereo not given),2.1
2,COc1cc(Cc2cnc(N)nc2N)cc(OC)c1C#N,1.39
3,S=C=Nc1ccc2cc3ccccc3cc2c1,5.7
4,COC12C(COC(N)=O)C3=C(C(=O)C(C)=C(Nc4ccccc4)C3=O)N1CC1NC12 (stereo not given),1.3
5,COc1ccccc1NC(=O)C(Cl)Cl,2.41
6,CC(=O)Nc1cccc(OC(=O)CNC(=O)c2ccccc2)c1,1.7
7,COc1ccccc1C(=O)NCCCCN,0.58
8,CCCC(=O)NC(=O)NC(=O)CCC,1.4
9,CC(=O)NNC(=O)c1ccccc1N=NN(C)C,1.18
10,Clc1cc(Cl)cc(-c2c(Cl)c(Cl)cc(Cl)c2Cl)c1,7.37
11,CCCCNP(=O)(OC)SC (stereo not given),0.94
12,CN(C)c1cc(Cc2cnc(N)nc2N)cc(N(C)C)c1,1.6
13,O=CNc1nccs1,0.54
14,CN(SN(C)C(=O)OC(C)(C)C)C(=O)Oc1cccc2c1OC(C)(C)C2,4.3
15,CCCC1(CC)C(=O)NC(=O)N(C)C1=O (stereo not given),1.65
16,CN(C)/N=N/c1ccccc1C(=O)NN,1.28
17,CN(C)Cc1ccco1,1.19
18,CSC(C)=NOC(=O)N(C)SN(C(=O)c1ccc(C)cc1)C(C)C,3.4
19,COC1(C(F)(F)F)C(Cl)C(Cl)C(Cl)C(Cl)C1Cl (stereo not given),4.06
20,OCCCCn1nnc2ccccc21,1.03
21,CCCCOc1cccc(N2C(N)=NC(N)=NC2(C)C)c1,2.03
22,COc1cc(Cc2cnc(N)nc2N)cc(OC)c1Br,2.01
23,CCCNC1CC2CC1c1ccccc12 (stereo not given),3.3
24,CCc1cccc(CC)c1NC1=NCCN1,2.48
25,Clc1cc(Cl)c(-c2ccccc2)cc1Cl,5.81
